Source: patent US20250129002A1, “PRODUCTION METHOD OF PRODUCT 1,3-BUTYLENE GLYCOL” (KH Neochem Co., Ltd., priority 2021, published 2025)

Tested on: Cysteine-containing peptide for DPRA
Experiment: Skin sensitization test in accordance with DPRA (direct peptide reactivity assay)
Settings: relative to peptide decrease percentage of Comparative Example 1 regarded as 100; 50 μL 1,3-butylene glycol with 0.667 mM peptide solution; HPLC after 72±2 hours; average of three measurements
Text: The product 1,3-butylene glycol in the present embodiment has reduced skin sensitization. Here, skin sensitization refers to causing an allergic reaction after skin contact. For the evaluation of skin sensitization, it had been normal to use experimental animals, but a direct peptide reactivity assay (DPRA), which is an in chemico test, was adopted as an alternative test in OECD guideline TG442C in 2015 from the viewpoint of animal welfare, and in the present embodiment as well, skin sensitization is evaluated by a test in accordance with DPRA. In more detail, skin sensitization is evaluated according to a method described in experimental examples to be described below.
Regarding 1,3-butylene glycol obtained in Examples 1 and 2 and Comparative Examples 1 and 2, skin sensitization was evaluated according to the following method.
15 mg of Cysteine-containing peptide for DPRA manufactured by Scrum Inc. and 30 mL of a 0.05 M phosphate buffer were mixed together to prepare a 0.05 M phosphate buffer solution containing 0.667 mM of the peptide (hereinafter, peptide solution). After one hour elapsed from the preparation of the peptide solution, 750 μL of the peptide solution and 250 μL of acetonitrile were put into each of three brown sample bottles for HPLC to prepare three reference solutions. After two hours elapsed from the preparation of the reference solutions, 750 μL of the peptide solution, 200 μL of acetonitrile and 50 μL of 1,3-butylene glycol were put into a different brown sample bottle for HPLC to prepare a sample solution (sample solution 1). Furthermore, sample solutions were prepared by the same operation after four hours and six hours elapsed from the preparation of the sample solution, respectively (sample solution 2 and sample solution 3). Regarding each of the three reference solutions and the sample solutions (sample solution 1, sample solution 2 and sample solution 3), measurement by HPLC analysis was performed after 72±2 hours elapsed from the preparation of each solution, and the average values of three measurements were calculated for the peak height of the peptide in the reference solutions and the sample solutions, respectively. The peptide decrease percentage was calculated using the following formula (1) from the calculated average values of three measurements.
Peptide decrease percentage (%)=(average value of three measurements for peak height of peptide in sample solutions/average value of three measurements for peak height of peptide in reference solutions)×100 (1)
In addition, regarding the present test, samples of the product 1,3-butylene glycol to be compared were tested on the same day from the viewpoint of the reproducibility. […]

| SMILES | Relative value of peptide decrease percentage |
| --- | --- |
| CC(O)CCO (stereo not shown) [Comparative Example 1, 1,3-butylene glycol] | 100 |
| CC(O)CCO (stereo not shown) [Comparative Example 2, 1,3-butylene glycol] | 121 |
| CC(O)CCO (stereo not shown) [Example 1, 1,3-butylene glycol] | 73 |
| CC(O)CCO (stereo not shown) [Example 2, 1,3-butylene glycol] | 85 |
